Measured values from patent US20200237738A1, “PHARMACEUTCAL COMPOSITION FOR PREVENTING OR TREATING CANCER, CONTAINING STREPTONIGRIN AND RAPAMYCIN AS ACTIVE INGREDIENTS” (MD BIOLAB CO., LTD., priority 2017, published 2020).

Experiments:
[1] = test system: CAKI-1 renal cancer cell line xenograft; assay: CD31 immunohistochemistry of tumors in CAKI-1 xenograft mouse model; type: in vivo, mice
Description: Specifically, a mouse model was prepared by xenografting mice with a CAKI-1 cell line which is a renal cancer cell line. And then, the formation of a tumor was observed after administering streptonigrin to the mouse model at a dose of 0.1 mg/kg or 0.2 mg/kg, and breeding the mice. After the xenografting, a biopsy tissue sample was obtained by excising tumor sites, and the level of expression of CD31-positive cells, which are a blood vessel specific marker, was confirmed by immunohistochemically staining the sample.

[2] = test system: renal cancer cell line (ACHN cells and CAKI-1 cells); assay: Trypan blue live cell count, renal cancer cell line (cell line not distinguished); type: cell-based; settings: 48 h, read-out: cell viability relative to untreated control
Description: Specifically, after ACHN cells which are a renal cancer cell (RCC) line and CAKI-1 cells (provided by the National Cancer Center, Korea) were each inoculated into an RPM1640 medium containing 10% FBS and cultured, and then further cultured for 48 hours after being treated with 10 nM rapamycin and/or 10 nM streptonigrin in combination or alone. After the culture, cells were stained by treating respective cells with 0.4% trypan blue, and live and dead cells were sorted and counted. For the number of counted cells, the ratio of the number of relative live cells was calculated based on the number of live cells of an untreated control which had not been treated with rapamycin and streptonigrin.
Specifically, the relative ratio of the number of live cells was calculated in the same manner as in Example <2-1>, using 5 μM of pazopanib and 2 nM of streptonigrin.

[3] = test system: human umbilical vein endothelial cells (HUVECs); assay: BrdUrd labeling assay (proliferation) in HUVECs; type: cell-based; settings: compared to siCTL control
Description: Specifically, human umbilical vein endothelial cells (HUVECs) were inoculated into a medium and cultured, and then further cultured after the medium was treated with siRNA of siCTL or siTGase2 (siTG2) and VEGF as a vascular growth promoting factor. After cells treated with the siRNA and VEGF were cultured, the medium was again treated with bromodeoxyuridine (BudUrd), a BrdUrd labeling assay was performed. For quantification, BrdUrd-positive cells were counted among the cells grown on the medium. For the counted cells, the number of BrdUrd-positive cells in the siCTL-treated and VEGF-untreated groups was used as a reference, and the number of BrdUrd cells in each experimental group was obtained as a relative percentage.

[4] = test system: human umbilical vein endothelial cells (HUVECs); assay: Angiogenesis analysis (tube segments on Matrigel) in HUVECs; type: cell-based; settings: compared to siCTL control
Description: At the same time, an angiogenesis analysis was also performed. Cells were allowed to adhere to the well surface and cultured by inoculating HUVEC cells into Matrigel-coated wells. Cells were further cultured by adding VEGF and each siRNA to the medium, and then tube segments formed were counted using an angiogenesis assay kit.

[5] = test system: human umbilical vein endothelial cells (HUVECs); assay: Migration of HUVECs; type: cell-based; settings: compared to siCTL control

Row | Compound | number of CD31-positive cells with increasing dose ([1]; streptonigrin 0.1 mg/kg or 0.2 mg/kg) | level of CD31-positive cells relative to control ([1]; streptonigrin 0.2 mg/kg, tumor biopsy) | viability at 0.01 µM [2] | proliferation of cells (BrdUrd-positive cells) [3] | angiogenesis degree (tube formation) [4] | migration of cells [5]
1 | COC1=C(N)C(=O)c2nc(-c3nc(C(=O)O)c(C)c(-c4ccc(OC)c(OC)c4O)c3N)ccc2C1=O [streptonigrin] | decreased | about 20% | ≥ 65% |  |  | 
2 | VEGF |  |  |  | sharply increased | sharply increased | sharply increased
3 | CO[C@H]1C[C@@H]2CC[C@@H](C)[C@@](O)(O2)C(=O)C(=O)N2CCCC[C@H]2C(=O)O[C@H]([C@H](C)C[C@@H]2CC[C@@H](O)[C@H](OC)C2)CC(=O)[C@H](C)/C=C(\C)[C@@H](O)[C@@H](OC)C(=O)[C@H](C)C[C@H](C)/C=C/C=C/C=C/1C [rapamycin] |  |  | ≥ 90% |  |  | 
